Experimental data from patent US20260250318A1, “COMPOSITIONS AND METHODS FOR CROSSING THE BLOOD BRAIN BARRIER” (VOYAGER THERAPEUTICS, INC., priority 2022, published 2026).

system: brain; assay: Matured TTM-001 and TTM-002 variants, NGS enrichment in mouse brain; format: in vivo, mice; conditions: mouse brain; relative to AAV9 control

Sequence | Fold Enrichment relative to AAV9, Brain (Mouse)
KTIPKNGSPHSKAQNQQT | 77.458 fold
KTLNGNGSPHSKAQNLQT | 159.134 fold
KTINGSGSPHSKAQSVHT | 76.110 fold
KTVNGSGSPHSKAPNQQT | 58.080 fold
KTINGSGSPHSKAQNTHD | 81.189 fold
KTINVSGSPHSKAQGQQT | 87.211 fold
KNCWGSGSPHSKAQNQQT | 59.888 fold
KTINGTGSPHSKAPNQLT | 86.939 fold

system: brains, heart, liver, muscle, and DRG of the NHPs; assay: Maturation of TTM-001 and TTM-002 capsids, NGS enrichment in NHP tissues; format: in vivo; conditions: NGS fold-enrichment of matured AAV capsid variants; NHP brain, RNA; relative to AAV9 control
Outline: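 Variants carry mutations within and flanking the loop IV peptide insert: positions 450–466 were triplet-randomized, while positions 449–466 received low-frequency point mutations. The combined pool went into two NHPs, and each peptide was scored by NGS enrichment ratio against AAV9.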

Sequence | Fold Enrichment relative to AAV9, Brain (NHP)
KTIPKNGSPHSKAQNQQT | 53.824 fold
KTLNGNGSPHSKAQNLQT | 54.458 fold
KTINGSGSPHSKAQSVHT | 53.226 fold
KTVNGSGSPHSKAPNQQT | 53.444 fold
KTINGSGSPHSKAQNTHD | 58.108 fold
KTINVSGSPHSKAQGQQT | 55.870 fold
KNCWGSGSPHSKAQNQQT | 57.756 fold
KTINGTGSPHSKAPNQLT | 58.738 fold

same assay, conditions: NHP DRG; relative to AAV9 control

Sequence | Fold Enrichment relative to AAV9, DRG (NHP)
KTIPKNGSPHSKAQNQQT | 0.000 fold
KTLNGNGSPHSKAQNLQT | 0.668 fold
KTINGSGSPHSKAQSVHT | 0.000 fold
KTVNGSGSPHSKAPNQQT | 0.833 fold
KTINGSGSPHSKAQNTHD | 0.000 fold
KTINVSGSPHSKAQGQQT | 0.000 fold
KNCWGSGSPHSKAQNQQT | 0.000 fold
KTINGTGSPHSKAPNQLT | 0.000 fold

same assay, conditions: NHP heart; relative to AAV9 control

Sequence | Fold Enrichment relative to AAV9, Heart (NHP)
KTIPKNGSPHSKAQNQQT | 0.032 fold
KTLNGNGSPHSKAQNLQT | 0.000 fold
KTINGSGSPHSKAQSVHT | 0.004 fold
KTVNGSGSPHSKAPNQQT | 2.206 fold
KTINGSGSPHSKAQNTHD | 0.027 fold
KTINVSGSPHSKAQGQQT | 0.191 fold
KNCWGSGSPHSKAQNQQT | 0.000 fold
KTINGTGSPHSKAPNQLT | 0.000 fold

same assay, conditions: NHP liver, DNA; relative to AAV9 control

Sequence | Fold Enrichment relative to AAV9, Liver DNA (NHP)
KTIPKNGSPHSKAQNQQT | 0.178 fold
KTLNGNGSPHSKAQNLQT | 0.172 fold
KTINGSGSPHSKAQSVHT | 0.217 fold
KTVNGSGSPHSKAPNQQT | 0.178 fold
KTINGSGSPHSKAQNTHD | 0.126 fold
KTINVSGSPHSKAQGQQT | 0.040 fold
KNCWGSGSPHSKAQNQQT | 0.092 fold
KTINGTGSPHSKAPNQLT | 0.035 fold

same assay, conditions: NHP liver, RNA; relative to AAV9 control

Sequence | Fold Enrichment relative to AAV9, Liver RNA (NHP)
KTIPKNGSPHSKAQNQQT | 0.115 fold
KTLNGNGSPHSKAQNLQT | 0.161 fold
KTINGSGSPHSKAQSVHT | 0.446 fold
KTVNGSGSPHSKAPNQQT | 0.156 fold
KTINGSGSPHSKAQNTHD | 0.410 fold
KTINVSGSPHSKAQGQQT | 0.592 fold
KNCWGSGSPHSKAQNQQT | 0.000 fold
KTINGTGSPHSKAPNQLT | 0.229 fold

same assay, conditions: NHP muscle; relative to AAV9 control

Sequence | Fold Enrichment relative to AAV9, Muscle (NHP)
KTIPKNGSPHSKAQNQQT | 0.000 fold
KTLNGNGSPHSKAQNLQT | 0.000 fold
KTINGSGSPHSKAQSVHT | 0.000 fold
KTVNGSGSPHSKAPNQQT | 0.006 fold
KTINGSGSPHSKAQNTHD | 0.000 fold
KTINVSGSPHSKAQGQQT | 0.000 fold
KNCWGSGSPHSKAQNQQT | 0.000 fold
KTINGTGSPHSKAPNQLT | 0.000 fold
